From US20240383845A1, “NAPHTHALENEDITHIOL AND DERIVATIVE THEREOF, AND PRODUCTION PROCESS AND USE FOR THE SAME” (SUGAI CHEMICAL INDUSTRY CO., LTD., priority 2021, published 2024)

Assays:
[1] = Refractive index (abbe refractometer); format: physicochemical
Procedure: The refractive index of each sample was measured using an abbe refractometer (“NAR-lT” manufactured by ATAGO CO., LTD.) at a temperature of 25° C. and a wavelength of 589 nm. Depending on the species of each sample, the refractive index was measured as follows.
For the after-mentioned 16NDSH, 15NDSH, 26NDSH and 27NDSH; 15DGNDSH; 15DHENDSH; 16DMNDSH and 15DMNDSH; and 16DCNDSH and 15DCNDSH, a sample was dissolved in 1,3-dimethyl-2-imidazolidinone (DMI) to prepare multiple solutions with different concentrations, and the refractive index of each solution was measured at a temperature of 25° C. and a wavelength of 589 nm. From the results of the refractive index at each concentration, the refractive index value at 100% by mass of the concentration was determined by extrapolation.
For the after-mentioned 16NDSHMA, 15NDSHMA, 26NDSHMA and 27NDSHMA; 16NDSHA and 15NDSHA; 15DANDSH; and 15DVNDSH, polymerization may occur during the mixing, and thus a sample was dissolved in a methoquinone/DMI solution (a solution containing 4000 ppm of methoquinone relative to the mass of DMI) to prepare multiple solutions with different concentrations. The refractive index of each solution was measured at a temperature of 25° C. and a wavelength of 589 nm. From the results of the refractive index at each concentration, the refractive index value at 100% by mass of the concentration was determined by extrapolation.
For the after-mentioned 16DANDSH; 16DVNDSH; 16DGNDSH; and 16DHENDSH, a sample was liquid for a while after preparation, and thus the refractive index was measured in the state of an undiluted solution. Further, thiol-ene-based resins (thiol-ene-based resins obtained from 16NDSH or 15NDSH and divinylbenzene) were measured in the same manner. […]

[2] = Dissolubility or compatibility (maximum dissolved concentration, HPLC); format: physicochemical; conditions: for Dissolubility, Methanol / Dissolubility, DMF / Dissolubility, Ethyl acetate / Dissolubility, MMA / Dissolubility, PGMEA / Dissolubility, THF / Dissolubility, Styrene / Dissolubility, Toluene: 25° C.; for Dissolubility, DMF: N,N-dimethylformamide; for Dissolubility, MMA: methyl methacrylate; for Dissolubility, PGMEA: propylene glycol monomethyl ether acetate; for Dissolubility, THF: tetrahydrofuran
Procedure: In more detail, the sample was added to a predetermined amount of a solvent or a polymerizable component until the sample was no longer dissolved, and the sample content of the liquid layer (the solvent layer) of the resulting mixture was analyzed using an HPLC (“SPD-20A” manufactured by SHIMADZU CORPORATION), and thus the concentration (the maximum dissolved concentration) of the sample in the liquid layer (the solvent layer) was determined as a solubility.

[3] = 25° C., 589 nm, DMI solutions of different concentrations, value at 100% by mass by extrapolation
[4] = 25° C., 589 nm, methoquinone/DMI solutions, value at 100% by mass by extrapolation
[5] = stated for the raw material used, method not stated
[6] = 25° C., 589 nm, measured as undiluted liquid (also thiol-ene-based resins)

| Compound | Refractive index [1, 3] | Dissolubility, Methanol [2] | Dissolubility, DMF [2] | Dissolubility, Ethyl acetate [2] | Dissolubility, MMA [2] | Dissolubility, PGMEA [2] | Dissolubility, THF [2] | Refractive index [1, 4] | Dissolubility, Styrene [2] | Dissolubility, Toluene [2] | saturation solubility ([2]; in styrene (curable resin)) | melting point | Refractive index [1, 6] | saturation solubility ([2]; in PMMA resin composition) | saturation solubility ([2]; in 55% divinylbenzene (isomer mixture)) | saturation solubility ([2]; in curable composition with bisphenol A-type liquid epoxy resin) | Refractive index [1, 5] |
| --- | --- | --- | --- | --- | --- | --- | --- | --- | --- | --- | --- | --- | --- | --- | --- | --- | --- |
| O=C(O)CSc1cccc2c(SCC(=O)O)cccc12 [Example 15DCNDSH, 1,5-bis(carboxymethylthio)naphthalene] | 1.657 |  | 10.1 % by mass | 0.03 % by mass | < 0.01 % by mass | 0.02 % by mass | 0.67 % by mass |  |  |  |  |  |  |  |  |  |  |
| C=C(C)C(=O)Sc1cccc2c(SC(=O)C(=C)C)cccc12 [Example 15NDSHMA, 1,5-bis(methacryloylthio)naphthalene] |  | 0.36 % by mass | 13.2 % by mass | 4.36 % by mass | 5.22 % by mass | 3.34 % by mass | 18.7 % by mass | 1.638 | 10.4 % by mass | 6.73 % by mass | about 10 % by mass |  |  |  |  |  |  |
| C=CCSc1cccc2c(SCC=C)cccc12 [Example 15DANDSH, 1,5-bis(allylthio)naphthalene] |  |  |  | 16.4 % by mass | 26.6 % by mass | 13.7 % by mass |  | 1.653 | 10.6 % by mass | 26.1 % by mass |  | 78 to 79 °C |  |  |  |  |  |
| C=CC(=O)Sc1cccc2c(SC(=O)C=C)cccc12 [Example 15NDSHA, 1,5-bis(acryloylthio)naphthalene] |  |  |  | 1.57 % by mass | 1.93 % by mass | 1.50 % by mass |  | 1.646 | 4.24 % by mass | 2.61 % by mass |  | 156 to 158 °C |  |  |  |  |  |
| C=Cc1ccccc1 [styrene] |  |  |  |  |  |  |  |  |  |  |  |  |  |  |  |  | 1.544 |
| O=C(O)CSc1ccc2c(SCC(=O)O)cccc2c1 [Example 16DCNDSH, 1,6-bis(carboxymethylthio)naphthalene] | 1.663 |  | 61.0 % by mass | 0.56 % by mass | 0.14 % by mass | 0.98 % by mass | 30.5 % by mass |  |  |  |  | 176 to 178 °C |  |  |  |  |  |
| c1cc(SCC2CO2)c2ccc(SCC3CO3)cc2c1 (centres unmarked) [Example 16DGNDSH, 1,6-bis(glycidylthio)naphthalene] |  |  |  | Freely blended (>90) % by mass | Freely blended (>90) % by mass | Freely blended (>90) % by mass |  |  | Freely blended (>90) % by mass | Freely blended (>90) % by mass |  |  | 1.665 |  |  |  |  |
| OCCSc1cccc2c(SCCO)cccc12 [Example 15DHENDSH, 1,5-bis(2-hydroxyethylthio)naphthalene] | 1.668 |  |  | 3.01 % by mass | 34.7 % by mass | 3.60 % by mass |  |  | 0.35 % by mass | 0.19 % by mass |  | 84 to 86 °C |  |  |  |  |  |
| C=CCSc1ccc2c(SCC=C)cccc2c1 [Example 16DANDSH, 1,6-bis(allylthio)naphthalene] |  |  |  | Freely blended (>90) % by mass | Freely blended (>90) % by mass | Freely blended (>90) % by mass |  |  | Freely blended (>90) % by mass | Freely blended (>90) % by mass |  |  | 1.667 |  |  |  |  |
| CCc1nc(C)c[nH]1 [2-ethyl-4-methylimidazole] |  |  |  |  |  |  |  |  |  |  |  |  |  |  |  |  | 1.499 |
| c1cc(SCC2CO2)c2cccc(SCC3CO3)c2c1 (centres unmarked) [Example 15DGNDSH, 1,5-bis(glycidylthio)naphthalene] | 1.621 |  |  | 51.9 % by mass | 60.9 % by mass | 62.3 % by mass |  |  | 43.6 % by mass | 56.8 % by mass |  | 50 to 53 °C |  |  |  |  |  |
| CSc1cccc2c(SC)cccc12 [Example 15DMNDSH, 1,5-bis(methylthio)naphthalene] | 1.690 |  |  | 1.25 % by mass | 1.44 % by mass | 1.25 % by mass |  |  | 3.13 % by mass | 2.36 % by mass |  | 149 to 151 °C |  | about 10 % by mass |  |  |  |
| Sc1cccc2c(S)cccc12 [Example 15NDSH, 1,5-naphthalenedithiol] | 1.711 | 1.08 % by mass | 34.4 % by mass | 7.05 % by mass |  | 7.44 % by mass | 29.0 % by mass |  |  | 7.26 % by mass |  |  |  |  | about 5 % by mass | about 0.1 % by mass |  |

Further lines, with some results ahead:

| Refractive index [1, 3] | Dissolubility, Methanol [2] | Dissolubility, DMF [2] | Dissolubility, Ethyl acetate [2] | Dissolubility, MMA [2] | Dissolubility, PGMEA [2] | Dissolubility, THF [2] | Refractive index [1, 4] | Dissolubility, Styrene [2] | Dissolubility, Toluene [2] | saturation solubility ([2]; in styrene (curable resin)) | melting point | Refractive index [1, 6] | saturation solubility ([2]; in PMMA resin composition) | saturation solubility ([2]; in 55% divinylbenzene (isomer mixture)) | saturation solubility ([2]; in curable composition with bisphenol A-type liquid epoxy resin) | Compound | Refractive index [1, 5] |
| --- | --- | --- | --- | --- | --- | --- | --- | --- | --- | --- | --- | --- | --- | --- | --- | --- | --- |
| 1.722 | 19.3 % by mass |  |  |  |  |  |  |  |  |  |  |  |  |  |  | Sc1ccc2c(S)cccc2c1 [Example 16NDSH, 1,6-naphthalenedithiol] |  |
|  | 2.49 % by mass | 59.5 % by mass | 44.6 % by mass | 44.1 % by mass | 31.1 % by mass | 67.6 % by mass | 1.647 | 51.1 % by mass | 50.7 % by mass |  |  |  |  |  |  | C=C(C)C(=O)Sc1ccc2c(SC(=O)C(=C)C)cccc2c1 [Example 16NDSHMA, 1,6-bis(methacryloylthio)naphthalene] |  |
|  | 0.20 % by mass | 17.5 % by mass | 3.20 % by mass | 4.36 % by mass | 2.68 % by mass | 13.1 % by mass | 1.649 | 7.92 % by mass | 6.84 % by mass |  |  |  |  |  |  | C=C(C)C(=O)Sc1ccc2ccc(SC(=O)C(=C)C)cc2c1 [Example 27NDSHMA, 2,7-bis(methacryloylthio)naphthalene] |  |
|  |  |  | Freely blended (>90) % by mass | Freely blended (>90) % by mass | Freely blended (>90) % by mass |  |  | Freely blended (>90) % by mass | Freely blended (>90) % by mass |  |  | 1.699 |  |  |  | C=CSc1ccc2c(SC=C)cccc2c1 [Example 16DVNDSH, 1,6-bis(vinylthio)naphthalene] |  |
|  |  |  | Freely blended (>90) % by mass | Freely blended (>90) % by mass | Freely blended (>90) % by mass |  |  | 2.87 % by mass | 1.69 % by mass |  |  | 1.672 |  |  |  | OCCSc1ccc2c(SCCO)cccc2c1 [Example 16DHENDSH, 1,6-bis(2-hydroxyethylthio)naphthalene] |  |
|  | 0.13 % by mass | 4.59 % by mass | 1.08 % by mass | 2.42 % by mass | 1.46 % by mass | 9.59 % by mass | 1.651 | 5.00 % by mass | 3.73 % by mass |  |  |  |  |  |  | C=C(C)C(=O)Sc1ccc2cc(SC(=O)C(=C)C)ccc2c1 [Example 26NDSHMA, 2,6-bis(methacryloylthio)naphthalene] |  |
| 1.721 | 0.16 % by mass | 7.75 % by mass | 0.90 % by mass |  | 1.05 % by mass | 5.24 % by mass |  |  | 0.76 % by mass |  | 186 to 188 °C |  |  |  |  | Sc1ccc2ccc(S)cc2c1 [Example 27NDSH, 2,7-naphthalenedithiol] |  |
